Earlier results as cited in article PMC9851200, “Multiparameter phenotypic screening for endogenous TFEB and TFE3 translocation identifies novel chemical series modulating lysosome function” (Autophagy, 2022).

Legend:
Parameters in all cases: method as in original PKIS2 published data
[1] = target: T1, kinases (KINOMEscan panel) (Homo sapiens, UniProt O14730); conditions: RIOK3; Published KINOMEscan; ref original PKIS2 published data; cited from earlier work
T1 sequence (O14730 1-519): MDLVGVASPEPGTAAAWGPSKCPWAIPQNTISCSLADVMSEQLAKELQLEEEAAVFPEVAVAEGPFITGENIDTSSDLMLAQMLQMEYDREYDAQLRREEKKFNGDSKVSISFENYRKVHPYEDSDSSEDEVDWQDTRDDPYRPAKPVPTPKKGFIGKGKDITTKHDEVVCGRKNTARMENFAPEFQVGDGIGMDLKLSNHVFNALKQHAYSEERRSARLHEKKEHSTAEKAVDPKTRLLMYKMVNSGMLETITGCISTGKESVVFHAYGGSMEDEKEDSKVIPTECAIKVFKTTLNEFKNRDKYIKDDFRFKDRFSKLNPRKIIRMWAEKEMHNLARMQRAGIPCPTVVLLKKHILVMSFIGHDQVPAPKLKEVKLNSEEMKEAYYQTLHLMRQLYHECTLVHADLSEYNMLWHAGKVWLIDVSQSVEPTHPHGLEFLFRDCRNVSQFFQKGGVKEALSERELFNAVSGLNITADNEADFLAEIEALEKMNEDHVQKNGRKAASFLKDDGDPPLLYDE

[2] = target: T2, kinases (KINOMEscan panel) (Homo sapiens, UniProt O15146); conditions: MUSK; Published KINOMEscan; ref original PKIS2 published data; cited from earlier work
T2 sequence (O15146 24-869): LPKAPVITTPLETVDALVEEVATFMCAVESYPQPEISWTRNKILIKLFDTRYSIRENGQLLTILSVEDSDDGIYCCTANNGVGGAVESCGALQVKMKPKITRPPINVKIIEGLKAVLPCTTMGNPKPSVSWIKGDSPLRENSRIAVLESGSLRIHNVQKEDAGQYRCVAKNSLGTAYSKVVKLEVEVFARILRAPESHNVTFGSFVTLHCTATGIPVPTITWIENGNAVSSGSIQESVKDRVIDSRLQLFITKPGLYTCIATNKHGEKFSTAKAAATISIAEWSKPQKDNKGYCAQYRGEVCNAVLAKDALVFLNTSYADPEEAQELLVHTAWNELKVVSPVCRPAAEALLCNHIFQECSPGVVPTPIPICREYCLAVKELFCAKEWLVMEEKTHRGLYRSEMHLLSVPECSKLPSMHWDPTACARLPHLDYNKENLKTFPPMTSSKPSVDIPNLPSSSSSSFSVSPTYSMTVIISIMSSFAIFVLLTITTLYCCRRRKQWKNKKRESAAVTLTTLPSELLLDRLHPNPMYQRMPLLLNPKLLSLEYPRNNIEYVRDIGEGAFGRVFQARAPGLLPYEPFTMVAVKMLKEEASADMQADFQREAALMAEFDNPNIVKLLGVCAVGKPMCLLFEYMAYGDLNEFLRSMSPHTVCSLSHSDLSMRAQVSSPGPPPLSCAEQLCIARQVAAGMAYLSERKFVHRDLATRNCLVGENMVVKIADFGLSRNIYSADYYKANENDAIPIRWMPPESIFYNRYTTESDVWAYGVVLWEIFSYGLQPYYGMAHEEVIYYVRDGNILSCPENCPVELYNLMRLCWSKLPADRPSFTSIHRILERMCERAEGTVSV

[3] = target: T3, kinases (KINOMEscan panel) (Homo sapiens, UniProt Q96PN8); conditions: kinase TSSK3; Published KINOMEscan; ref original PKIS2 published data; cited from earlier work
T3 sequence (Q96PN8 1-268): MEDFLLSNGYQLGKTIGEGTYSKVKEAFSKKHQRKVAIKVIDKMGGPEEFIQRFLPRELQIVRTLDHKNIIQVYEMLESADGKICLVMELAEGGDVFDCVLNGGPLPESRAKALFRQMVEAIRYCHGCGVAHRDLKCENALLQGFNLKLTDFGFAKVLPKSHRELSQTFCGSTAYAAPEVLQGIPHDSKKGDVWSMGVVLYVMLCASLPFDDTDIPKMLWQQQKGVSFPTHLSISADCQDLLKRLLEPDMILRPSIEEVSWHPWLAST

[4] = target: kinases (KINOMEscan panel) (Homo sapiens, UniProt Q16584); conditions: kinase MAP3K11; Published KINOMEscan; ref original PKIS2 published data; cited from earlier work
[5] = target: kinases (KINOMEscan panel) (Homo sapiens, UniProt Q52WX2); conditions: SBK1; Published KINOMEscan; ref original PKIS2 published data; cited from earlier work
[6] = target: kinases (KINOMEscan panel) (Homo sapiens, UniProt Q9P0L2); conditions: Published KINOMEscan; ref original PKIS2 published data; cited from earlier work
[7] = target: T4, kinases (KINOMEscan panel) (Homo sapiens, UniProt Q8N752); conditions: CSNK1A1L; Published KINOMEscan; ref original PKIS2 published data; cited from earlier work
T4 sequence (Q8N752 1-337): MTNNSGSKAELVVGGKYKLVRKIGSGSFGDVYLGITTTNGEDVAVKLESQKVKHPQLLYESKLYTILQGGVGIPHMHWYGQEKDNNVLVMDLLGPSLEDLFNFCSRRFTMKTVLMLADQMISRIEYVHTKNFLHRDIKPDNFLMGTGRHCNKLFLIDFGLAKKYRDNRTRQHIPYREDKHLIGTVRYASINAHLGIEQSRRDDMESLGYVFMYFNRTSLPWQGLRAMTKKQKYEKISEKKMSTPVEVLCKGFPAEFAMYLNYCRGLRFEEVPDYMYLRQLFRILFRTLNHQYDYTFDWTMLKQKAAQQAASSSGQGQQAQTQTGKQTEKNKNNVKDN

Chain of kinases (KINOMEscan panel) (Homo sapiens, UniProt Q16584) (Q16584 whole entry): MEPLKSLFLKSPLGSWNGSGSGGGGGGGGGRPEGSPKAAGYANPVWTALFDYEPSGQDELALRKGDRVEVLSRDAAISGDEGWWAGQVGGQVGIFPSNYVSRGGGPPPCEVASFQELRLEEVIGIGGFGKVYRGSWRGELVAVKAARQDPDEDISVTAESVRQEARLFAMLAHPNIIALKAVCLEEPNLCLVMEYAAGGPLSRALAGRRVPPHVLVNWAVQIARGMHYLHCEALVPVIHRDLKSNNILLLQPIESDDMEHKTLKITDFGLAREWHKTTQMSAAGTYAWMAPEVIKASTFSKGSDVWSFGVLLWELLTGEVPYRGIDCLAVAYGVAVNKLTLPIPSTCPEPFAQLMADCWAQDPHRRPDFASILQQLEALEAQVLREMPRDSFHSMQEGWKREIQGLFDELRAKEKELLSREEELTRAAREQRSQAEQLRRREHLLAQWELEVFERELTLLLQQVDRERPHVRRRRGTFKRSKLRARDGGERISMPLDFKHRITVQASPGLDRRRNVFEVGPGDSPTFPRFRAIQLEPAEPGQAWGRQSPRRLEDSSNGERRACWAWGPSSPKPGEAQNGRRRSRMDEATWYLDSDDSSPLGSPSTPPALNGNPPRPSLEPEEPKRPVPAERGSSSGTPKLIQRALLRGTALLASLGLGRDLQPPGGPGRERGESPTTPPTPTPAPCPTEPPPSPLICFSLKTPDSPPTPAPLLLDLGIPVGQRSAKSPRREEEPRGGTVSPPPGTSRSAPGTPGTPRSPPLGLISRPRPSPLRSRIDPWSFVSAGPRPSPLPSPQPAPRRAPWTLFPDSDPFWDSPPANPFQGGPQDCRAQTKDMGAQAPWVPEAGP
Chain of kinases (KINOMEscan panel) (Homo sapiens, UniProt Q52WX2) (Q52WX2 whole entry): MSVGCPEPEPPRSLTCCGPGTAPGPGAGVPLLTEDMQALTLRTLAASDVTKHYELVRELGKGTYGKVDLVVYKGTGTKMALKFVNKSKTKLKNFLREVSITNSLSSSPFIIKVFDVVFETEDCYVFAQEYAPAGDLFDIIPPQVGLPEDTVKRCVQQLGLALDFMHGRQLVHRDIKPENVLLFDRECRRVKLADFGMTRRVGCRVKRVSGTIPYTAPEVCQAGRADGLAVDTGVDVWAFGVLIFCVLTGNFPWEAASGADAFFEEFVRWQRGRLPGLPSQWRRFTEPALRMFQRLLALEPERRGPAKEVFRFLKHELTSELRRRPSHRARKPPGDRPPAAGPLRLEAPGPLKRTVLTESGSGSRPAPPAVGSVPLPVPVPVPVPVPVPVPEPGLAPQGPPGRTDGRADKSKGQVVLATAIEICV
Chain of kinases (KINOMEscan panel) (Homo sapiens, UniProt Q9P0L2) (Q9P0L2 whole entry): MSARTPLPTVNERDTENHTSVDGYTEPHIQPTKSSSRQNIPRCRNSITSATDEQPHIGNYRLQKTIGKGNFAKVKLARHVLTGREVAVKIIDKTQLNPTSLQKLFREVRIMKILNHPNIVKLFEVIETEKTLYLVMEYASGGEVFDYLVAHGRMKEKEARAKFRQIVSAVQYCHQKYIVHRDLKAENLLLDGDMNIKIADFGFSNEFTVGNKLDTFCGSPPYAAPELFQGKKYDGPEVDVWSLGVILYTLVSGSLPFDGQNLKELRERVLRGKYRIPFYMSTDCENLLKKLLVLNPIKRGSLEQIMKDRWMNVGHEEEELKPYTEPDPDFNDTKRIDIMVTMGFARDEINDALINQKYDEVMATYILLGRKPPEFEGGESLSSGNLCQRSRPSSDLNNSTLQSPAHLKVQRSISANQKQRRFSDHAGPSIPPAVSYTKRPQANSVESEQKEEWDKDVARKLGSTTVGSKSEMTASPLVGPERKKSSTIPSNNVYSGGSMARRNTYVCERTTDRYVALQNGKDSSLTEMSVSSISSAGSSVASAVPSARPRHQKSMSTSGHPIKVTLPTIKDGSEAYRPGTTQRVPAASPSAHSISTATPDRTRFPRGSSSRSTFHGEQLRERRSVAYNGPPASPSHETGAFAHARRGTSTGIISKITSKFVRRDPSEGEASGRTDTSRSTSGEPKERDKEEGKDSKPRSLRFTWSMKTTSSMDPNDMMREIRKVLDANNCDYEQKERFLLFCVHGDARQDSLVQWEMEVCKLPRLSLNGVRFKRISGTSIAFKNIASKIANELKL

Cc1cccc(-c2nc(Nc3ccncc3)c3ccccc3n2)n1 [NK215]
KINOMEscan RIOK3 [1]: 35 | KINOMEscan MUSK [2]: 17 | KINOMEscan TSSK3 [3]: 0 | KINOMEscan MAP3K11 [4]: 6 | KINOMEscan SBK1 [5]: 0 | KINOMEscan MARK1 [6]: 0 | KINOMEscan CSNK1A1L [7]: 10
